The values that follow come from patent US20070078127A1, “Control of arthropods in animals” (AVENTIS CROPSCIENCE S.A., priority 1999, published 2007).

In data set [1] the test system is cat fleas (Ctenocephalides felis). As to the kind of experiment: control of flea on dog. Particulars: dogs, 10 mg/kg, 30 mg/mL in 1:1 dimethyl sulfoxide/corn oil; counts versus placebo at 1, 9, 16, 23, 30 days; satisfactory in any of the three areas, for a period ranging from eight to thirty days. It is filed as in vivo. The text has this:
(§1) Cats are only infested with fleas.

Data set [2] concerns ticks (Rhipicephalus sanguineus). In words: control of tick on dog. Particulars: dogs, 10 mg/kg, 30 mg/mL in 1:1 dimethyl sulfoxide/corn oil; counts versus placebo at 1, 9, 16, 23, 30 days; satisfactory in any of the three areas, for a period ranging from eight to thirty days. Format: in vivo.
Description: as §1

In data set [3] the test system is cat fleas (Ctenocephalides felis). As to the kind of experiment: control of flea on cat. It is filed as in vivo. The settings on record: cats, 20 mg/kg, 30 mg/mL in 1:1 dimethyl sulfoxide/corn oil; counts versus placebo at 1, 9, 16, 23, 30 days; satisfactory in any of the three areas, for a period ranging from eight to thirty days.
Description: as §1

Data set [4] is described as follows: side-effects in treated dogs and cats. Particulars: dogs 10 mg/kg, cats 20 mg/kg; period ranging from eight to thirty days.
Description: The compounds 1-(2,6-dichloro-4-trifluoromethylphenyl)-3-cyano-4-trifluromethylthio-5-hydroxypyrazole, 1-(2,6-dichloro-4-trifluoromethylphenyl)-3-cyano-4-trifluoromethylsulfinyl-5-hydroxypyrazole and 1-(2,6-dichloro-4-trifluoromethylphenyl)-3-cyano-4-trifluoromethylsulfonyl-5-hydroxypyrazole are formulated as 30 mg/mL formulations in a 1:1 volume/volume solution of dimethyl sulfoxide and corn oil. Using this formulation, mixed breed dogs and cats are treated at a rate of 10 mg of the compound per kg (mg/kg)of body weight of the dog and 20 mg/kg of the cat treated. The animals are fasted for at least 8 hours prior to treatment, fed half of the daily ration immediately prior to treatment, then allowed access to the remainder of the daily ration immediately following treatment.
All dogs are infested with cat fleas (Ctenocephalides felis) and with ticks (Rhipicephalus sanguineus) 1 day prior to administration of the compound. Cats are only infested with fleas. […] At 1, 9, 16, 23 and 30 days after treatment the control of fleas and ticks in treated dogs and cats is determined versus a group of infested dogs and cats which receive a placebo consisting of a 1:1 volume/volume solution of dimethyl sulfoxide and corn oil. To determine the efficacies of the compounds, the arthropods are combed from the animnals and counted.

`CC(C)(C)C(=O)Oc1c(SC(F)(F)F)c(C#N)nn1-c1c(Cl)cc(C(F)(F)F)cc1Cl` [Compound 3-10, 1-(2,6-dichloro-4-trifluoromethylphenyl)-3-cyano-4-trifluoromethylsulfenyl-5-trimethylacetoxypyrazole]: the “control of flea on dog” value in data set [1] is given as “Satisfactory results”. Further, the “control of tick on dog” value in data set [2] is reported as “Satisfactory results”. Also, the “control of flea on cat” value in data set [3] is given as “Satisfactory results”.
Turning to `N#Cc1nn(-c2c(Cl)cc(C(F)(F)F)cc2Cl)c(O)c1SC(F)(F)Cl` [Compound 1-9, 1-(2,6-dichloro-4-trifluoromethylphenyl)-3-cyano-4-chlorodifluoromethylsulfenyl-5-hydroxypyrazole], the “control of flea on dog” value in data set [1] is “Satisfactory results”. The “control of tick on dog” value in data set [2] is recorded as “Satisfactory results”. In data set [3], the “control of flea on cat” value is “Satisfactory results”. Moreover, the side-effect result in data set [4] is “without any significant side-effect”.
Turning to `N#Cc1nn(-c2c(Cl)cc(C(F)(F)F)cc2Cl)c(O)c1SC(F)(F)F` [Compound 1-1, 1-(2,6-dichloro-4-trifluoromethylphenyl)-3-cyano-4-trifluoromethylsulfenyl-5-hydroxypyrazole], the “control of flea on dog” value in data set [1] is recorded as “Satisfactory results”. In addition, the “control of tick on dog” value in data set [2] is recorded as “Satisfactory results”. In addition, the “control of flea on cat” value in data set [3] is listed as “Satisfactory results”.
Turning to `CCOc1c(SC(F)(F)F)c(C#N)nn1-c1c(Cl)cc(C(F)(F)F)cc1Cl` [Compound 3-1, 1-(2,6-dichloro-4-trifluoromethylphenyl)-3-cyano-4-trifluoromethylsulfenyl-5-ethoxypyrazole], the “control of flea on dog” value in data set [1] is given as “Satisfactory results”. In data set [2], the “control of tick on dog” value is “Satisfactory results”. Moreover, the “control of flea on cat” value in data set [3] is “Satisfactory results”.
`N#Cc1nn(-c2c(Cl)cc(C(F)(F)F)cc2Cl)c(O)c1S(=O)(=O)C(F)(F)F` [Compound 1-5, 1-(2,6-dichloro-4-trifluoromethylphenyl)-3-cyano-4-trifluoromethylsulfonyl-5-hydroxypyrazole]: in data set [1], the “control of flea on dog” value was “Satisfactory results”. The “control of tick on dog” value in data set [2] was “Satisfactory results”. Also, the “control of flea on cat” value in data set [3] is “Satisfactory results”.
Regarding `N#Cc1nn(-c2c(Cl)cc(C(F)(F)F)cc2Cl)c(O)c1[S+]([O-])C(F)(F)F` (centres unmarked) [Compound 1-3, 1-(2,6-dichloro-4-trifluoromethylphenyl)-3-cyano-4-trifluoromethylsulfinyl-5-hydroxypyrazole], in data set [1], the “control of flea on dog” value is listed as “Satisfactory results”. Moreover, the “control of tick on dog” value in data set [2] was “Satisfactory results”. Also, in data set [3], the “control of flea on cat” value was “Satisfactory results”.
On to `CN(C)C(=O)Oc1c(S(=O)(=O)C(F)(F)F)c(C#N)nn1-c1c(Cl)cc(C(F)(F)F)cc1Cl` [Compound 19-1, 1-(2,6-dichloro-4-trifluorometylphenyl) -3-cyano-4-trifluormethylsulfonyl-5-N,N-dimethylcarbamyloxypyrazole], for which the “control of flea on dog” value in data set [1] is listed as “Satisfactory results”. Besides, the “control of tick on dog” value in data set [2] is reported as “Satisfactory results”. In data set [3], the “control of flea on cat” value is given as “Satisfactory results”. Besides, the side-effect entry in data set [4] is reported as “without any significant side-effect”.
